Converted amounts (≈) assume the structure as drawn. Read-outs that look alike come from different tables or passages of the source.
Experiments:
[1] = RP-HPLC temperature profiling (hydrophobicity and self-association/dimerization parameter PA); assay type: physicochemical; settings: for tR (min) 5° C.: RP-HPLC retention time at 5° C. during temperature profiling (measure of hydrophobicity); for tR (min) 80° C.: RP-HPLC retention time at 80° C. during temperature profiling; for Hydrophobicity tR5: RP-HPLC retention time at pH 2, 5° C.; for Hydrophobicity tR80: RP-HPLC retention time at pH 2, 80° C.; for tR (min) Max: maximal RP-HPLC retention time during temperature profiling 5-80° C.; for PA (min) association parameter: maximal retention time difference relative to control peptide C within 5-80° C.; for PA (dimerization / self-association parameter): maximal retention time difference relative to control peptide C, 5-80° C.; for ΔtR (X-NVL) (min) 5° C.: retention time difference relative to native peptide V681 (NVL) at 5° C.; for ΔtR (X-NVL) (min) 80° C.: retention time difference relative to native peptide V681 (NVL) at 80° C.
Method in brief: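 RP-HPLC retention times recorded over temperature profiling from 5°C to 80°C, with retention relative to native V681 at each limit used as hydrophobicity. Self-association parameter PA defined as the maximal change in retention time from 5°C, after subtracting that of monomeric random-coil control peptide C.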

human erythrocytes [2] = test: Hemolytic activity (MHC), Protocol A, 12 hours; settings: for minimal hemolytic concentration (MHC): incubation for 12 hours at 37° C. (Tables 7 and 8)
Method in brief: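 Twofold peptide dilutions incubated with 1% human erythrocytes in phosphate-buffered saline at 37 °C for 12 h; hemoglobin release read spectrophotometrically at 562 nm, or at 570 nm in a repeat. Hemolytic titer taken as the highest 2-fold dilution still releasing hemoglobin, versus peptide-free erythrocytes.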

human erythrocytes [3] = test: Hemolytic activity (MHC), Protocol B, 18 hours; settings: for MHC (μg/ml) hRBC: maximal peptide concentration with no hemolysis after 18 hours
Method in brief: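 Hemolysis of 1% human erythrocytes in phosphate-buffered saline by 2-fold diluted D-peptides, incubated 18 h at 37 °C; hemoglobin release read spectrophotometrically. Value is the maximal peptide concentration producing no hemolysis, relative to erythrocytes without peptide.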

[4] = Description: (§1) The geometric mean MIC values from 6 microbial strains in this table were calculated to provide an overall evaluation of antimicrobial activity against gram-negative bacteria.
(§2) Measurement of Antimicrobial Activity—Minimal inhibitory concentrations (MICs) were determined using a standard microtiter dilution method in LB (Luria-Bertani) no-salt medium (10 g of tryptone and 5 g of yeast extract per liter). Briefly, cells were grown overnight at 37° C. in LB and diluted in the same medium. […] Plates were incubated at 37° C. for 24 hours and MICs determined as the lowest peptide concentration that inhibited growth. Alternatively, minimal inhibitory concentrations were determined using a standard microtiter dilution method in a Mueller-Hinton (MH) medium. Briefly, cells were grown overnight at 37° C. in MH broth and diluted in the same medium. […] Plates were incubated at 37° C. for 24 hours and MICs determined as the lowest peptide concentration that inhibited growth. However, for MIC determination of Pseudomonas aeruginosa clinical isolates, brain heart infusion (BH1) medium was used instead of MH broth. In addition, the bacteria were diluted to a final inoculum of 1×10^6 colony-forming units/ml.

[5] = tested on: E. coli (UB 1005 wt and DC2 abs); settings: for MIC (μg/ml) E. coli C500 abs: antibiotic sensitive strain; for MIC (μg/ml) E. coli C498 wt: wild-type lab strain
Description: as §1, §2

P. aeruginosa H187 wt = tested on: P. aeruginosa H187 wt
Description: as §1, §2

S. typhimurium C610 abs = tested on: S. typhimurium C610 abs
Description: as §1, §2

gram-positive bacteria = tested on: gram-positive bacteria
Method in brief: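 Microtiter dilution in LB no-salt or Mueller-Hinton medium, with BHI for Pseudomonas aeruginosa clinical isolates (final inoculum 1×10^6 CFU/ml). Plates were incubated 24 hours at 37° C. MIC was the lowest peptide concentration inhibiting growth.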

[6] = non-polar face substitutions, relative hydrophobicity
[7] = maximal peptide concentration producing no hemolysis after 18 hours, 37° C.
[8] = methicillin-resistant clinical strain

| Compound | tR (min) 5° C. [1] [min] | tR (min) 80° C. [1] [min] | Hydrophobicity tR5 [1] [min] | Hydrophobicity tR80 [1] [min] | tR (min) Max [1] [min] | PA (min) association parameter [1] [min] | PA (dimerization / self-association parameter) [1] | ΔtR (X-NVL) (min) 5° C. [1, 6] [min] | ΔtR (X-NVL) (min) 80° C. [1, 6] [min] | minimal hemolytic concentration (MHC) (human erythrocytes [2]) [µg/mL] | Hemolytic activity MHC (human erythrocytes [3]; [7]) [µg/mL] | MHC (μg/ml) hRBC (human erythrocytes [3]; Table 11) [µg/mL] | MHC (μg/ml) hRBC (human erythrocytes [3]; Table 12) [µg/mL] | MIC (μg/ml) St C587 wt ([4]; C610 abs) [µg/mL] | MIC (μg/ml) E. coli C500 abs [5] [µg/mL] | MIC (μg/ml) E. coli C498 wt [5] [µg/mL] | MIC (μg/ml) Pa H188 abs (P. aeruginosa H187 wt) [µg/mL] | MIC (μg/ml) Pa H187 wt (P. aeruginosa H187 wt; H187 wt) [µg/mL] | MIC (μg/ml) St C610 abs (S. typhimurium C610 abs; C610 abs) [µg/mL] | MIC (μg/ml) GM (gram-positive bacteria) [µg/mL] | other results |
| --- | --- | --- | --- | --- | --- | --- | --- | --- | --- | --- | --- | --- | --- | --- | --- | --- | --- | --- | --- | --- | --- |
| CC[C@H](C)[C@H](NC(=O)[C@H](C)NC(=O)[C@H](CCCCN)NC(=O)[C@H](CC(C)C)NC(=O)[C@H](C)NC(=O)[C@@H](NC(=O)[C@H](Cc1c[nH]cn1)NC(=O)[C@H](CC(C)C)NC(=O)[C@@H](NC(=O)[C@@H](NC(=O)[C@H](CCCCN)NC(=O)[C@@H](C)NC(=O)[C@H](C)NC(=O)[C@H](CO)NC(=O)[C@H](CCCCN)NC(=O)[C@H](Cc1ccccc1)NC(=O)[C@@H](NC(=O)[C@H](CCCCN)NC(=O)[C@H](CC(C)C)NC(=O)[C@H](Cc1ccccc1)NC(=O)[C@H](CO)NC(=O)[C@H](CCCCN)NC(=O)[C@H](Cc1c[nH]c2ccccc12)NC(=O)[C@H](CCCCN)NC(C)=O)[C@@H](C)O)[C@@H](C)O)C(C)C)[C@@H](C)O)C(=O)N[C@@H](CO)C(=O)N[C@@H](CO)C(N)=O [NAD] | 40.49 | 38.00 | 81.2 | 73.2 | 41.01 | 2.19 | 4.1 | -7.61 | -7.83 | 250 | 31.3 | 31.3 | 31.3 | 12.5 (≈ 4.26 µM) | 1.6 (≈ 0.545 µM) | 3.1 (≈ 1.06 µM) | 1.6 (≈ 0.545 µM) | 3.1 (≈ 1.06 µM) | 3.1 (≈ 1.06 µM) | 2.8 (≈ 0.954 µM) | fold decrease in hemolytic activity compared to the L-diastereomer (human erythrocytes [2]): 8; Hemolytic activity Fold (human erythrocytes [3]): 4; Hemolytic activity MHC (human erythrocytes [3]; red cells of human, 18 h): 31.3 µg/mL; MIC (μg/ml) S. aureus 623 methR (Staphylococcus aureus; [8]): 3.1 µg/mL (≈ 1.06 µM); MIC (μg/ml) S. aureus 622 wt (Staphylococcus aureus; wild type strain): 1.6 µg/mL (≈ 0.545 µM) |
| CC[C@H](C)[C@H](NC(=O)[C@H](C)NC(=O)[C@H](CCCCN)NC(=O)[C@H](CC(C)C)NC(=O)[C@H](C)NC(=O)[C@@H](NC(=O)[C@H](Cc1cnc[nH]1)NC(=O)[C@H](CC(C)C)NC(=O)[C@@H](NC(=O)[C@@H](NC(=O)[C@H](CCCCN)NC(=O)[C@H](CCCCN)NC(=O)[C@H](C)NC(=O)[C@H](CO)NC(=O)[C@H](CCCCN)NC(=O)[C@H](Cc1ccccc1)NC(=O)[C@@H](NC(=O)[C@H](CCCCN)NC(=O)[C@H](CC(C)C)NC(=O)[C@H](Cc1ccccc1)NC(=O)[C@H](CO)NC(=O)[C@H](CCCCN)NC(=O)[C@H](Cc1c[nH]c2ccccc12)NC(=O)[C@H](CCCCN)NC(C)=O)[C@@H](C)O)[C@@H](C)O)C(C)C)[C@@H](C)O)C(=O)N[C@@H](CO)C(=O)N[C@@H](CO)C(N)=O [NKL] | 36.85 | 33.22 | 74.9 | 64.7 | 36.91 | 1.10 | 2.1 | -11.25 | -12.61 |  | 250.0 | 250.0 | 250.0 |  | 3.1 (≈ 1.04 µM) | 3.1 (≈ 1.04 µM) |  |  |  |  | decrease in hydrophobicity relative to NVL (V681) ([1]; RP-HPLC retention time difference at 80° C., non-polar face substitutions): -12.61 min; fold decrease in hemolytic activity compared to V681 (human erythrocytes [2]; 12 hours): > 32; Hemolytic activity Fold (human erythrocytes [3]; fold decrease in hemolytic activity compared to V681, 18 hours): 32; Hemolytic activity MHC (human erythrocytes [3]; maximal peptide concentration showing no hemolysis after 18 hours, hRBC, Table 14): 250.0 µg/mL; MIC (μg/ml) St C587 wt ([4]; Salmonella typhimurium wild-type lab strain): 6.3 µg/mL (≈ 2.11 µM); MIC (μg/ml) Pa H188 abs (P. aeruginosa H187 wt; Pseudomonas aeruginosa antibiotic sensitive strain): 3.1 µg/mL (≈ 1.04 µM); MIC (μg/ml) Pa H187 wt (P. aeruginosa H187 wt; Pseudomonas aeruginosa wild-type lab strain): 6.3 µg/mL (≈ 2.11 µM); MIC (μg/ml) St C610 abs (S. typhimurium C610 abs; Salmonella typhimurium antibiotic sensitive strain): 3.1 µg/mL (≈ 1.04 µM); MIC (μg/ml) GM (gram-positive bacteria; geometric mean of MIC values from all 6 gram-positive strains of Table 12): 7.9 µg/mL (≈ 2.64 µM); MIC (μg/ml) S. aureus 622 wt (Staphylococcus aureus): 12.5 µg/mL (≈ 4.18 µM); MIC (μg/ml) S. aureus 623 methR (Staphylococcus aureus): 12.5 µg/mL (≈ 4.18 µM) |
| CC[C@H](C)[C@H](NC(=O)[C@H](C)NC(=O)[C@H](CCCCN)NC(=O)[C@H](CC(C)C)NC(=O)[C@H](C)NC(=O)[C@@H](NC(=O)[C@H](Cc1c[nH]cn1)NC(=O)[C@H](CC(C)C)NC(=O)[C@@H](NC(=O)[C@@H](NC(=O)[C@H](CCCCN)NC(=O)[C@@H](NC(=O)[C@H](C)NC(=O)[C@H](CO)NC(=O)[C@H](CCCCN)NC(=O)[C@H](Cc1ccccc1)NC(=O)[C@@H](NC(=O)[C@H](CCCCN)NC(=O)[C@H](CC(C)C)NC(=O)[C@H](Cc1ccccc1)NC(=O)[C@H](CO)NC(=O)[C@H](CCCCN)NC(=O)[C@H](Cc1c[nH]c2ccccc12)NC(=O)[C@H](CCCCN)NC(C)=O)[C@@H](C)O)C(C)C)[C@@H](C)O)C(C)C)[C@@H](C)O)C(=O)N[C@@H](CO)C(=O)N[C@@H](CO)C(N)=O [Peptide V681, reference compound] | 48.10 | 45.83 | 96.6 | 88.8 | 49.99 | 3.63 | 7.2 | 0 | 0 | 15.6 | 7.8 | 7.8 | 7.8 | 12.5 (≈ 4.22 µM) | 3.1 (≈ 1.05 µM) | 6.3 (≈ 2.13 µM) | 3.1 (≈ 1.05 µM) | 6.3 (≈ 2.13 µM) | 3.1 (≈ 1.05 µM) | 4.4 (≈ 1.49 µM) | overall hydrophobicity change relative to PVL ([1]; RP-HPLC retention time difference at 80° C., polar face substitutions): -0.35 min; ΔtR (X-PSL) (min) 5° C. ([1]; polar face substitutions, retention time difference relative to native peptide V681 (PSL) at 5° C., relative hydrophobicity): 0 min; ΔtR (X-PSL) (min) 80° C. ([1]; polar face substitutions, retention time difference relative to native peptide V681 (PSL) at 80° C., relative hydrophobicity): 0 min; MHC (human erythrocytes [2]; minimal hemolytic concentration on human red blood cells (hRBC), Table 9): 15.6 µg/mL; MIC (μg/ml) Gram-positive (gram-positive bacteria): 6.3 µg/mL (≈ 2.13 µM); geometric mean MIC against gram-positive bacteria (gram-positive bacteria): 6.3 µg/mL; MIC (μg/ml) S. aureus 623 methR (Staphylococcus aureus; [8]): 6.3 µg/mL (≈ 2.13 µM); MIC (μg/ml) S. aureus 622 wt (Staphylococcus aureus; wild type strain): 3.1 µg/mL (≈ 1.05 µM) |
